Paper PMC3907362, “Synthetic cationic antimicrobial peptides bind with their hydrophobic parts to drug site II of human serum albumin” (BMC Structural Biology, 2014)
Where “and” joins values, the source holds several entries; their conditions need not be identical. Equal values may be shown once. Entries after “also recorded” stand apart in the source; their conditions may differ. Read-outs that look alike come from different tables or passages of the source. Residues, ends and D or L forms follow the SMILES beside them.

How the values were obtained:
[1] = test system: Methicillin resistant Staphylococcus aureus ATCC 33591; assay type: cell-based
Description: (§1) The antibacterial activity of CAP 1 and CAP 5 were tested towards Staphylococcus aureus strain ATCC 25923, methicillin resistant Staphylococcus aureus strain ATCC 33591 and Escherichia coli strain ATCC 25922. The studies were performed by Toslab AS employing standard methods.

[2] = test system: Escherichia coli ATCC 25922; assay type: cell-based
Description: as §1

[3] = test system: Staphylococcus aureus strain ATCC 25923; assay type: cell-based
Description: as §1

[4] = test system: selected bacteria; test: MIC towards selected bacteria, summary over strains; assay type: cell-based; conditions: all bacterial strains tested
Description: as §1

[5] = biological target: HSA (Homo sapiens, UniProt P02768); test: NMR WaterLOGSY; assay type: binding; conditions: HSA:ligand 1:20
Description: All NMR experiments were acquired on an Agilent (Varian) inova spectrometer operating at 599.934 MHz for ^1H, equipped with a 2nd generation inverse triple resonance HCN cold probe. […] The difference spectra were produced by internal subtraction and all spectra were acquired with both sculpted solvent suppression during the PFG spin echo and 500 ms solvent presaturation during the relaxation delay. The protein signals were suppressed by a 10 ms T1ρ-spinlock. Finally, the spectra were multiplied with a 3 Hz exponential window function. For reference, double PFG spin echo 1D proton spectra were acquired using the same parameters, including the 10 ms T1ρ-spinlock for protein suppression. […] All samples were monitored for line broadening, quickened relaxation and NOE inversion to spot any direct interaction between ligands before the addition of HSA.

[6] = biological target: T1, human serum albumin (HSA) (Homo sapiens, UniProt P02768); test: Non-competitive isothermal titration calorimetry (ITC); conditions: for Kd: pH 7.4
Description: The experiments were either performed on a CSC 5300 Nano-Isothermal Titration Calorimeter III (Calorimetry Sciences Corporation, Utah, USA) with a cell volume of 1 mL, or a MicroCal™ iTC200 with a cell volume of 200 μL (MicroCal, LLC., Northampton, MA, USA). In all experiments lyophilized HSA ~99% essential fatty acid and globulin free (Sigma A3782), was weighed out to a nominal concentration and dissolved prior to the experiments in buffer 50 mM Tris, 10 mM CaCl2, pH 7.4 at 25°C. All ligands and peptides were dissolved in the same buffer. Control titrations of ligand into buffer were performed in duplicate to investigate if the heat of dilution would generate a significant signal, and if ligand-ligand interactions were present in the competitive experiments. The same settings as for the corresponding ligand-HSA experiments were applied in the control experiments.
A stirring rate of 150 rpm and an isotherm temperature of 25°C were applied. The response signal was measured at 1 s intervals, and a 200 s baseline was collected prior to the first injection for the purpose of assessing the baseline. Non-competitive experiments were carried out either in duplicates or triplicates. […] In total 40 consecutive injections were performed with a volume of 5 μL and a spacing of 300 s. […] Prior to the first injection, a baseline of 100 s was recorded to ensure instrument stability. The solution was stirred at 150 rpm, and the isothermal temperature set to 25°C. All competitive experiments were carried out in duplicate. […] The first injection was set to a dummy volume of 0.1 μL due to syringe leakage in the baseline equilibration step. An initial delay of 180 s was set to sample the baseline. The applied reference power was 6 μcal/s and an isothermal temperature of 25°C was used. […] For the selected peptides CAP 3 and CAP 5 competitive experiments with reversed order of the reference ligands and the CAP were performed as a control of titration order. The same ITC settings were applied for the non-competitive and competitive experiments with the MicroCal™ iTC200.
The ITC data was analyzed using the NanoAnalyse software from TA Instruments, v2.0.1 (Waters LLC, New Castle, DE, US) or Origin® 7.0. Independent model fit was used to generate the binding isotherm, and the first injection in all titration experiments was omitted in the binding isotherm analysis. The heat of dilution and unspecific binding signal corresponding to the last injection in each experiment was subtracted from all of the heat signals. The quality of the model fit was examined using the statistical modules of the software, the 95% confidence interval based on a 1000 trial calculations in the NanoAnalyze package, and the default non-weighted least square calculation in Origin® 7.0.

[7] = biological target: T1, human serum albumin (HSA); set-up: purchased Sigma A3782; conditions: HSA drug site II; ref [34],[35]; read-out: binding affinity (Kd), reported in other studies; cited from earlier work
[8] = Kd, CSC 5300 Nano-Isothermal Titration Calorimeter III, 25°C
[9] = Kd, MicroCal iTC200 (values in parenthesis), 25°C
[10] = CSC 5300 Nano-Isothermal Titration Calorimeter III
[11] = MicroCal iTC200 (values in parenthesis)

T1 sequence (P02768 25-609): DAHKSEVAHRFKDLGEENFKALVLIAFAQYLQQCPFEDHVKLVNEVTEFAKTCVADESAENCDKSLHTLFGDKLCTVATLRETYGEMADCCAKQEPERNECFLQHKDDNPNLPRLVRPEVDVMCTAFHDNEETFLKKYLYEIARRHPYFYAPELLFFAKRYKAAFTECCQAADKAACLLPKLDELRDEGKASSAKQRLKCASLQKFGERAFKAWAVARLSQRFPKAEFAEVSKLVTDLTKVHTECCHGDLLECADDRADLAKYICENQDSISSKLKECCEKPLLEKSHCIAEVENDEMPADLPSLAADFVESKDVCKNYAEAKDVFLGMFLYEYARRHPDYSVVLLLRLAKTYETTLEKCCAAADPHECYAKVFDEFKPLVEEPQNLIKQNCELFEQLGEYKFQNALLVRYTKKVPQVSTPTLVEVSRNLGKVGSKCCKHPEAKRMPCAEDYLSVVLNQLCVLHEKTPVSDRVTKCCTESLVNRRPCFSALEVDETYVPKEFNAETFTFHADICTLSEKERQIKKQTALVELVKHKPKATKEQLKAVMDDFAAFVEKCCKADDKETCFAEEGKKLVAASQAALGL
Sequence of HSA (P02768 25-609): as above

Compound: C[C@H](NC(=O)[C@@H](N)CCCNC(=N)N)C(=O)N[C@@H](CCCNC(=N)N)C(N)=O [CAP 1] (H-Arg-Ala-Arg-NH2)
- MIC MRSA [1]: >499 µM
- MIC E. coli [2]: >499 µM
- MIC S. aureus [3]: >499 µM
- Antimicrobial activity (MIC relative to threshold) [4]: inactive
- WaterLOGSY binding to HSA [5]: does not interact directly with HSA and does not and not
- Binding to HSA by ITC, in words ([6]; non-competitive ITC): did not bind to HSA; also recorded: does not bind to HSA
- Kd [6]: -

Compound: N=C(N)NCCC[C@H](NC(=O)[C@H](Cc1c[nH]c2ccccc12)NC(=O)[C@@H](N)CCCNC(=N)N)C(=O)NCc1ccccc1 [CAP 2] (HELM PEPTIDE1{R.W.R.[c1ccc(CN[*:1])cc1]}$$$$V2.0)
- Kd [6, 8]: 23 ± 8 µM

Compound: N=C(N)NCCC[C@H](NC(=O)[C@H](Cc1ccc(-c2ccccc2)cc1)NC(=O)[C@@H](N)CCCNC(=N)N)C(=O)NCc1ccccc1 [CAP 3] (HELM PEPTIDE1{R.[O=C([C@H](Cc1ccc(-c2ccccc2)cc1)N[*:1])[*:2]].R.[c1ccc(CN[*:1])cc1]}$$$$V2.0)
- Kd [6, 8]: 22 ± 9 µM
- Kd [6, 9]: 99 µM

Compound: CC(C)(C)c1cc(C(C)(C)C)c2[nH]c(C(C)(C)C)c(C[C@H](NC(=O)[C@@H](N)CCCNC(=N)N)C(=O)N[C@@H](CCCNC(=N)N)C(=O)NCc3ccccc3)c2c1 [CAP 4]
- Kd [6, 8]: 25 ± 9 µM

Compound: C[C@H](N)C(=O)N[C@@H](Cc1ccc(-c2ccccc2)cc1)C(=O)N[C@@H](C)C(N)=O [CAP 5]
- MIC MRSA [1]: >523 µM
- MIC E. coli [2]: >523 µM
- MIC S. aureus [3]: >523 µM
- Kd [6, 9]: 100 µM

Compound: CN(C)c1cccc2c(S(=O)(=O)NCC(=O)O)cccc12 [Dgly, dansylglycine]
- WaterLOGSY binding to HSA [5]: clear WaterLOGSY effect
- TΔS [6, 10]: 2.3 ± 0.5 kcal/mol
- n (stoichiometric ratio) [6, 10]: 1.08 ± 0.05
- ΔH [6, 10]: -4.5 ± 0.3 kcal/mol
- Kd [6, 8]: 11 ± 4 µM
- Kd [6, 9]: 40 µM
- TΔS [6, 11]: 0.5 ± 0.1 kcal/mol
- n (stoichiometric ratio) [6, 11]: 1.16 ± 0.01
- ΔG [6, 11]: -6.0 kcal/mol and -6.00 ± 0.02 kcal/mol
- ΔH [6, 11]: -5.5 ± 0.1 kcal/mol
- Kd [7]: 1.7 to 3.2 µM
